From patent publication EP4745134A1 (Jiangsu Yahong Meditech Co., Ltd., priority 2023, dated 2025)
Read-outs that look alike come from different tables or passages of the source.

What was measured:
[1] = tested on: HCT116 MTAP KO cells; test: Inhibitory activity against cell proliferation (CellTiter Glo, 6 days), HCT116 MTAP KO; type: cell-based; conditions: for IC50: HCT116 MTAP KO cells, 6 days, CellTiter Glo, read-out: HCT116 MTAP KO IC50; for Selectivity HCT 116-WT/ HCT116 MTAP KO: ratio of IC50 HCT116-WT / HCT116 MTAP KO
Outline: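 Viability is measured by CellTiter Glo luminescence on day 7, following a 6-day treatment with compounds serially diluted 4-fold over 8 points from 10000 nM. Both lines are plated at 250 cells per well and cultured overnight beforehand.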

[2] = tested on: HCT116-WT cells; test: Inhibitory activity against cell proliferation (CellTiter Glo, 6 days), HCT116-WT; type: cell-based; conditions: HCT116-WT cells, 6 days, CellTiter Glo, read-out: HCT116-WT IC50
Experimental: HCT116-WT (ATCC, CCL-247) and HCT116 MTAP KO (Nanjing Cobioer, CBP75002) cells were seeded into white low-transparency sterile 96-well cell culture plates at a density of 250 cells per well respectively, and the culture medium was McCoy's 5A Medium+10% FBS. The plates were placed under the condition of 37°C and 5% CO2 to be cultured overnight. The cells were treated with 4-fold serially diluted compounds of 8 concentration points starting at an initial concentration of 10000 nM, and the last two columns were used as control wells to which only DMSO was added. The drug-treated cells were further cultured for 6 days. On day 7, CellTiter Glo® reagent was added at 50 uL per well, and after reaction under shaking for 10 minutes at room temperature, the chemiluminescence signals were detected for the well plates through the chemiluminescence detection method using a BIOTEK H1 multifunctional microplate-reader. The IC50 values for inhibition of the compounds on cell viability were calculated in X1fit 5.0 software. Table 2. IC50 values for inhibition of the compounds on HCT116 MTAP KO/WT cell growth

In the case of `Cc1cc2cc(C(=O)N(Cc3ccc(-c4ccc(N(C)C(C)C)nc4)cn3)N(C)c3ncccn3)ccc2nc1N` [Example 257, 2-amino-N-((6'-(isopropyl(methyl)amino) -[3,3'-bipyridin]-6-yl)methyl)-N',3-dimet hyl-N'-(pyrimidin-2-yl)quinoline-6-carbo hydrazide], the IC50 ([1]; Homo sapiens, HCT-116, 144 h) is reported as 76 nM, the “Selectivity HCT 116-WT/ HCT116 MTAP KO” value [1] is reported as 13.42 and the IC50 ([2]; 144 h) is reported as 1020 nM.

In the case of `Cc1cc2cc(C(=O)N(Cc3ccc(-c4ccc(N5CCN(C)C(=O)C5)nc4)cn3)N(C)c3ncccn3)ccc2nc1N` [Example 258, 2-amino-N',3-dimethyl-N-((6'-(4-methyl-3-oxopiperazin-1-yl)-[3,3'-bipyridin]-6-yl)methyl)-N'-(pyrimidin-2-yl)quinoline-6-carbohydrazide], the IC50 ([1]; Homo sapiens, HCT-116, 144 h) is reported as 31 nM, the “Selectivity HCT 116-WT/ HCT116 MTAP KO” value [1] is reported as 23.10 and the IC50 ([2]; 144 h) is reported as 716 nM.

`Cc1cc2cc(C(=O)N(Cc3ccc(-c4ccc(N(C)CCN(C)C)nc4)cn3)N(C)c3ncccn3)ccc2nc1N` [Example 260, 2-amino-N-((6'-((2-(dimethylamino)ethyl)(methyl)amino)-[3,3'-bipyridine]-6-yl)methyl) -N', 3-dimethyl-N'-(pyrimidin-2-yl)quinoline-6-carbohydrazide] was tested, and the IC50 ([1]; Homo sapiens, HCT-116, 144 h) was 21 nM, the “Selectivity HCT 116-WT/ HCT116 MTAP KO” value [1] was 22.14 and the IC50 ([2]; 144 h) was 465 nM.

With `Cc1cc2cc(C(=O)N(Cc3ccc(I)cn3)N(C)c3ncccn3)ccc2nc1N` [Example 263, 2-amino-N-((5-iodopyridin-2-yl)methyl)-N',3-dimethyl-N'-(pyrimidin-2-yl)quinoline-6-carbohydrazide] the IC50 ([1]; Homo sapiens, HCT-116, 144 h) was 17 nM, the “Selectivity HCT 116-WT/ HCT116 MTAP KO” value [1] was 23.76 and the IC50 ([2]; 144 h) was 404 nM.

For `CN(c1ccccc1F)N(Cc1ccc(C(F)(F)F)cn1)C(=O)c1ccc2nc(N)c3cnn(C)c3c2c1` [Example 281, 4-amino-N'-(2-fluorophenyl)-N',1-dimethyl-N-((5-(trifluoromethyl)pyridin-2-yl)methyl)-1H-pyrazolo[4,3-c]quinoline-8-carb ohydrazide], the IC50 ([1]; Homo sapiens, HCT-116, 144 h) was 3.3 nM, the “Selectivity HCT 116-WT/ HCT116 MTAP KO” value [1] was 12.73 and the IC50 ([2]; 144 h) was 42 nM.

In the case of `Cc1cc2cc(C(=O)N(Cc3ccc(C(C)(C)F)cn3)N(C)c3ncccn3)ccc2nc1N` [Example 288, 2-amino-N-((5-(2-fluoroprop-2-yl)pyridin-2-yl)methyl)-N',3-dimethyl-N'-(pyrimidin-2-yl)quinoline-6-carbohydrazide], the IC50 ([1]; Homo sapiens, HCT-116, 144 h) is reported as 66 nM, the “Selectivity HCT 116-WT/ HCT116 MTAP KO” value [1] is reported as 28.91 and the IC50 ([2]; 144 h) is reported as 1910 nM.

With `Cc1cc2cc(C(=O)N(Cc3ccc(C(F)(F)C(F)(F)F)cn3)N(C)c3ncccn3)ccc2nc1N` [Example 293, 2-amino-N,3-dimethyl-N-((5-(perfluoroethyl)pyridin-2-yl)methyl)-N-(pyrimidin-2-yl)q uinoline-6-carbohydrazide] the IC50 ([1]; Homo sapiens, HCT-116, 144 h) was 25 nM, the “Selectivity HCT 116-WT/ HCT116 MTAP KO” value [1] was 26.64 and the IC50 ([2]; 144 h) was 666 nM.

`[2H]C([2H])([2H])c1cc2cc(C(=O)N(Cc3ccc(C(F)(F)F)cn3)N(C)c3ncccc3F)ccc2nc1N` [Example 309, 2-amino-N'-(3-fluoropyridin-2-yl)-N'-methyl-3-(methyl-d3)-N-((5-(trifluoromethyl)pyridin-2-yl)methyl)quinoline-6-carbohydrazide] was tested, and the IC50 ([1]; Homo sapiens, HCT-116, 144 h) was 30 nM, the “Selectivity HCT 116-WT/ HCT116 MTAP KO” value [1] was 15.53 and the IC50 ([2]; 144 h) was 466 nM.

For `[2H]C([2H])([2H])c1cc2cc(C(=O)N(Cc3ccc(C(F)(F)F)cn3)Nc3ncccn3)ccc2nc1N` [Example 312, 2-amino-3-(methyl-D3)-N'-(pyrimidin-2-yl)-N-((5-(trifluoromethyl)pyridin-2-yl)methyl)quinoline-6-carbohydrazide], the IC50 ([1]; Homo sapiens, HCT-116, 144 h) was 94 nM, the “Selectivity HCT 116-WT/ HCT116 MTAP KO” value [1] was 32.33 and the IC50 ([2]; 144 h) was 3040 nM.

With `[2H]C([2H])([2H])c1cc2cc(C(=O)N(Cc3ccc(-c4nncs4)cn3)N(c3ncccn3)C3CC3)ccc2nc1N` [Example 315, N-((5-(1,3,4-thiadiazol-2-yl)pyridin-2-yl)methyl)-2-amino-N'-cyclopropyl-3-(methyl-d3)-N'-(pyrimidin-2-yl)quinoline-6-carbohydrazide] the IC50 ([1]; Homo sapiens, HCT-116, 144 h) was 54 nM, the “Selectivity HCT 116-WT/ HCT116 MTAP KO” value [1] was 24.96 and the IC50 ([2]; 144 h) was 1350 nM.

For `Cc1cc2nc(N)c3cnn(C)c3c2cc1C(=O)N1CC(O)(C(F)(F)F)CN1c1ncccc1F` (stereo not drawn) [Example 355, (4-amino-1,7-dimethyl-1H-pyrazolo[4,3-c]quinolin-8-yl)(2-(3-fluoropyridin-2-yl)-4-hydroxy-4-(trifluoromethyl)pyrazolidin-1-yl)methanone], the IC50 ([1]; Homo sapiens, HCT-116, 144 h) was 150 nM, the “Selectivity HCT 116-WT/ HCT116 MTAP KO” value [1] was 32.00 and the IC50 ([2]; 144 h) was 4800 nM.

With `Cc1cc2nc(N)c3cnn(C)c3c2cc1C(=O)N1C(C)CCN1c1ncccc1F` (stereo not drawn) [Example 376, (4-amino-1,7-dimethyl-1H-pyrazolo[4,3-c]quinolin-8-yl)(2-(3-fluoropyridin-2-yl)-5-methylpyrazolidin-1-yl)methanone] the IC50 [1] was 105 nM, the “Selectivity HCT 116-WT/ HCT116 MTAP KO” value [1] was 35.48 and the IC50 [2] was 3720 nM.

For `Cc1cc2nc(N)c3cnn(C)c3c2cc1C(=O)N1CC(C)CN1c1ncc(Cl)cc1F` (stereo not drawn) [Example 394, (4-amino-1,7-dimethyl-1H-pyrazolo[4,3-c]quinolin-8-yl)(2-(5-chloro-3-fluoropyridin-2-yl)-4-methylpyrazolidin-1-yl)metha none], the IC50 ([1]; Homo sapiens, HCT-116, 144 h) was 16 nM, the “Selectivity HCT 116-WT/ HCT116 MTAP KO” value [1] was 44.81 and the IC50 ([2]; 144 h) was 717 nM.

With `Cn1ncc2c(N)nc3cc(Cl)c(C(=O)N4CC(C)(F)CN4c4ncc(Br)cc4F)cc3c21` (stereo not drawn) [Example 420, (4-amino-7-chloro-1-methyl-1H-pyrazolo [4,3-c]quinolin-8-yl)(2-(5-bromo-3-fluor opyridin-2-yl)-4-fluoro-4-methylpyrazolidin-1-yl)methanone] the IC50 ([1]; Homo sapiens, HCT-116, 144 h) was 26 nM, the “Selectivity HCT 116-WT/ HCT116 MTAP KO” value [1] was 28.58 and the IC50 ([2]; 144 h) was 743 nM.

For `Cn1ncc2c(N)nc3cc(Cl)c(C(=O)N4CC(C)(F)CN4c4cccc(F)n4)cc3c21` (stereo not drawn) [Example 426, (4-amino-7-chloro-1-methyl-1H-pyrazolo [4,3-c]quinolin-8-yl)(4-fluoro-2-(6-fluoropyridin-2-yl)-4-methylpyrazolidin-1-yl)m ethanone], the IC50 ([1]; Homo sapiens, HCT-116, 144 h) was 49 nM, the “Selectivity HCT 116-WT/ HCT116 MTAP KO” value [1] was 14.29 and the IC50 ([2]; 144 h) was 700 nM.

`COC1(C)CN(C(=O)c2cc3c(cc2C)nc(N)c2cnn(C)c23)N(c2ncccc2F)C1` (stereo not drawn) [Example 428, (4-amino-1,7-dimethyl-1H-pyrazolo[4,3-c]quinolin-8-yl)(2-(3-fluoropyridin-2-yl)-4-methoxy-4-methylpyrazolin-1-yl)methanone] was tested, and the IC50 ([1]; Homo sapiens, HCT-116, 144 h) was 12 nM, the “Selectivity HCT 116-WT/ HCT116 MTAP KO” value [1] was 26.75 and the IC50 ([2]; 144 h) was 321 nM.

In the case of `COC1CN(C(=O)c2cc3c(cc2C)nc(N)c2cnn(C)c23)N(c2ncc(Br)cc2F)C1` (stereo not drawn) [Example 438, (4-amino-1,7-dimethyl-1H-pyrazolo[4,3-c]quinolin-8-yl)(2-(5-bromo-3-fluoropyridin-2-yl)-4-methoxypyrazolidin-1-yl)met hanone], the IC50 ([1]; Homo sapiens, HCT-116, 144 h) is reported as 40 nM, the “Selectivity HCT 116-WT/ HCT116 MTAP KO” value [1] is reported as 37.65 and the IC50 ([2]; 144 h) is reported as 1510 nM.

With `Cc1cc2nc(N)c3cnn(C)c3c2cc1C(=O)N1CCCN1c1ncc(C2=CCN(C)CC2)cc1F` [Example 470, (4-amino-1,7-dimethyl-1H-pyrazolo[4,3-c]quinolin-8-yl)(2-(5-fluoro-1'-methyl-1', 2',3',6'-tetrahydro-[3,4'-bipyridine]-6-yl)pyrazolidin-1-yl)methanone] the IC50 ([1]; Homo sapiens, HCT-116, 144 h) was 94 nM, the “Selectivity HCT 116-WT/ HCT116 MTAP KO” value [1] was 32.33 and the IC50 ([2]; 144 h) was 3040 nM.

In the case of `Cc1cc2nc(N)c3cnn(C)c3c2cc1C(=O)N1CCCN1c1ncc(-c2cnn(C)c2)cc1F` [Example 471, (4-amino-1,7-dimethyl-1H-pyrazolo[4,3-c]quinolin-8-yl)(2-(3-fluoro-5-(1-methyl-1H-pyrazol-4-yl)pyridin-2-yl)pyrazolidin-1-yl)methanone], the IC50 ([1]; Homo sapiens, HCT-116, 144 h) is reported as 97 nM, the “Selectivity HCT 116-WT/ HCT116 MTAP KO” value [1] is reported as 60.37 and the IC50 ([2]; 144 h) is reported as 5860 nM.

`Cc1cc2nc(N)c3cnn(C)c3c2cc1C(=O)N1CCCN1c1ncc(-c2cnn(C(F)(F)F)c2)cc1F` [Example 480, (4-amino-1,7-dimethyl-1H-pyrazolo[4,3-c]quinolin-8-yl)(2-(3-fluoro-5-(1-(trifluor omethyl)-1H-pyrazol-4-yl)pyridin-2-yl)pyrazolidin-1-yl)methanone] was tested, and the IC50 ([1]; Homo sapiens, HCT-116, 144 h) was 55 nM, the “Selectivity HCT 116-WT/ HCT116 MTAP KO” value [1] was 32.16 and the IC50 ([2]; 144 h) was 1770 nM.

With `Cc1cc2nc(N)c3cnn(C)c3c2cc1C(=O)N1CCCN1c1ncc(-c2cnc3c(cnn3C)c2)cc1F` [Example 482, (4-amino-1,7-dimethyl-1H-pyrazolo[4,3-c]quinolin-8-yl)(2-(3-fluoro-5-(1-methyl-1H-pyrazolo[3,4-b]pyridin-5-yl)pyridin-2-yl)pyrazolidin-1-yl)methanone] the IC50 ([1]; Homo sapiens, HCT-116, 144 h) was 60 nM, the “Selectivity HCT 116-WT/ HCT116 MTAP KO” value [1] was 89.47 and the IC50 ([2]; 144 h) was 5370 nM.

In the case of `Cc1cc2nc(N)c3cnn(C)c3c2cc1C(=O)N1CCCN1c1ncc(-c2ccsc2)cc1F` [Example 483, (4-amino-1,7-dimethyl-1H-pyrazolo[4,3-c]quinolin-8-yl)(2-(3-fluoro-5-(thien-3-yl)pyridin-2-yl)pyrazolidin-1-yl)methanone], the IC50 ([1]; Homo sapiens, HCT-116, 144 h) is reported as 100 nM, the “Selectivity HCT 116-WT/ HCT116 MTAP KO” value [1] is reported as 41.72 and the IC50 ([2]; 144 h) is reported as 4170 nM.
